This is an account of results in article PMC3130785, “Small Compound 6-O-Angeloylplenolin Induces Mitotic Arrest and Exhibits Therapeutic Potentials in Multiple Myeloma” (PLoS ONE, 2011).

For data set [1], the system named is normal PBMCs from 5 healthy volunteers. As to the kind of experiment: MTT assay on normal PBMCs. Format: cell-based, human. To be noted: 48 h. The text has this:
CD138+ cells from 7 MM patients were isolated with informed consent from BM mononuclear cells by using positive immunomagnetic column separation (Miltenyi Biotech, Auburn, CA). The purity of CD138+ cells is above 97% as determined by flow cytometry. BMSCs were generated from a MM patient-derived CD138-negative BM mononuclear cells cultured for 5 weeks. Peripheral blood mononuclear cells (PBMCs) from 5 healthy donors were separated by Ficoll-Hipaque density sedimentation.
U266, RPMI 8226 cells (1×10^4), primary CD138+ cells, PBMCs (5×10^4), and BMSCs (1×10^4) were cultured in 96-well dishes and incubated without or with 6-OAP at indicated concentration for 48 h. MM.1S and MM.1R cells (2×10^4) were seeded into 96-well dishes and pre-cultured for 24 h, then treated with 6-OAP for 48 h. Cell proliferation was determined by MTT assay. Cell viability was estimated by trypan blue dye exclusion.

Another data set deals with phosphorylated H3 (pH3). Description: Western blotting of mitotic marker. Format: cell-based, human. To be noted: U266, MM.1S and CD138+ primary cells; 24 h. Here is the method:
Cell pellets were lysed in RIPA buffer containing 50 mM Tris pH 8.0, 150 mM NaCl, 0.1% SDS, 0.5% deoxycholate, 1% NP-40, 1 mM DTT, 1 mM NaF, 1 mM sodium vanadate, and protease inhibitors cocktail (Sigma). For immunoprecipitations, cells were lysed on ice for 15 minutes in RIPA buffer. Lysates were centrifuged. The supernatant was incubated with indicated antibodies overnight, after which protein A/G Plus beads (Santa Cruz Biotechnology) were added and incubated for 3 h. The beads were washed 4 times in RIPA buffer. Then the beads were resuspended in 1× sample buffer and boiled for 3 min. Protein extracts were quantitated and loaded on 8% to 12% sodium dodecyl sulfate polyacrylamide gel, electrophoresed, and transferred to a nitrocellulose membrane (Whatman). The membrane was incubated with primary antibody, washed, and incubated with horseradish peroxidase (HRP)–conjugated secondary antibody (Pierce). Detection was performed by using a chemiluminescent western detection kit (Cell Signaling). […]
Figure 2 6-OAP induces mitotic arrest in MM cells. […] Cell cycle distribution was determined by flow cytometry. […] Cell cycle distribution was determined by flow cytometry. […]

The test system of a further data set is Bacillus subtilis. Also on record: method as in PMID 9461679, PMID 8657743, PMID 12521264. To be noted: cited from earlier work.

On to `CC=C(C)C(=O)OC1C2C(CC(C)C3C=CC(=O)C31C)OC(=O)C2C` (stereo not drawn) [6-OAP, 6-O-angeloylplenolin], for which the “growth of normal PBMCs” value in data set [1] is given as “did not drastically affect the growth”. The “expression of pH3” value with phosphorylated H3 (pH3) is given as “up-regulated pH3”. Moreover, the antibacterial activity entry in the data set on Bacillus subtilis was “exhibit antibacterial activity”.
